The assay concerns the target T1, 3-oxo-5-alpha-steroid 4-dehydrogenase 2 (Homo sapiens, UniProt P31213).
T1 sequence (P31213 whole entry): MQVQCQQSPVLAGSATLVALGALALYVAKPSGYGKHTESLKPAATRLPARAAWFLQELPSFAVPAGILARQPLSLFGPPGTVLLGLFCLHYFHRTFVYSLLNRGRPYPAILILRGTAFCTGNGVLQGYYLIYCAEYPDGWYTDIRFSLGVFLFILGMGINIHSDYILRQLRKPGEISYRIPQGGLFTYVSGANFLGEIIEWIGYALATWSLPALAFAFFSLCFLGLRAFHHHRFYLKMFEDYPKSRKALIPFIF
Description: Inhibition of Homo sapiens (human) Steroid 5-alpha-reductase type 2.
One may read the IC50 as the point on the concentration scale where inhibition reaches its midpoint. Read a high IC50 as lower potency. In turn, `CC(C)(C)NC(=O)[C@H]1CC[C@H]2[C@@H]3CNC4=CC(=O)C=C[C@]4(C)[C@H]3CC[C@]12C` registered a half-inhibitory concentration (IC50) of 1.8 nM.
Under `CCN(CC)C(=O)[C@H]1CC[C@H]2[C@@H]3CN(C)C4=CC(=O)CC[C@]4(C)[C@H]3CC[C@]12C` stands 2.3 nM; under `CC(C)c1cc(C(C)C)c(C(=O)[C@H]2CC[C@H]3[C@@H]4CNC5=CC(=O)CC[C@]5(C)[C@H]4CC[C@]23C)c(C(C)C)c1`, 0.5 nM.
As for `CCCN1C[C@H]2[C@@H]3CC[C@H](C(=O)NC(c4ccccc4)c4ccccc4)[C@@]3(C)CC[C@@H]2[C@@]2(C)C=CC(=O)C=C12`, the half-maximal inhibitory concentration (IC50) is 1.3 nM. This IC50 is about 2.6-fold higher than that of the molecule before.
`CN1C[C@H]2[C@@H]3CC[C@H](C(=O)NC(c4ccccc4)c4ccccc4)[C@@]3(C)CC[C@@H]2[C@@]2(C)CCC(=O)C=C12` registered a concentration for half-maximal inhibition (IC50) of 0.2 nM.
Regarding `CN1C[C@H]2[C@@H]3CC[C@H](C(=O)NC4C5CC6CC(C5)CC4C6)[C@@]3(C)CC[C@@H]2[C@@]2(C)CCC(=O)C=C12` (some centres undefined), the IC50 was found to be 0.3 nM.
The same measure for `CC1=C2NC[C@H]3[C@@H]4CC[C@H](C(=O)NC(C)(C)C)[C@@]4(C)CC[C@@H]3[C@@]2(C)CCC1=O`: 1.4 nM; for `CN1C[C@H]2[C@@H]3CC[C@H](C(=O)NC(C)(C)C)[C@@]3(C)CC[C@@H]2[C@@]2(C)C=CC(=O)C=C12`: 6.7 nM.
Under `CCN(CC)C(=O)[C@H]1CC[C@H]2[C@@H]3CNC4=C(C)C(=O)C=C[C@]4(C)[C@H]3CC[C@]12C` stands 8.1 nM; under `CCN(CC)C(=O)[C@H]1CC[C@H]2[C@@H]3CNC4=C(Br)C(=O)CC[C@]4(C)[C@H]3CC[C@]12C`, 2.1 nM; under `CCN(CC)C(=O)[C@H]1CC[C@H]2[C@@H]3CN(C)C4=CC(=O)C=C[C@]4(C)[C@H]3CC[C@]12C`, 5.7 nM.
Molecule `CCN(CC)C(=O)[C@H]1CC[C@H]2[C@@H]3CN(C(C)C)C4=CC(=O)CC[C@]4(C)[C@H]3CC[C@]12C` showed a 50% inhibitory concentration (IC50) of 4.9 nM.
Under `CCN(CC)C(=O)[C@H]1CC[C@H]2[C@@H]3CN(C#N)C4=CC(=O)CC[C@]4(C)[C@H]3CC[C@]12C` stands 42 nM; under `CCN(CC)C(=O)[C@H]1CC[C@H]2[C@@H]3CNC4=CC(=O)CC[C@]4(C)[C@H]3CC[C@]12C`, 1.5 nM.
The same measure for `CCN(CC)C(=O)[C@H]1CC[C@H]2[C@@H]3CNC4=CC(=O)C=C[C@]4(C)[C@H]3CC[C@]12C`: 3.5 nM.
Molecule `C[C@]12CC[C@H]3[C@@H](CNC4=CC(=O)CC[C@@]43C)[C@@H]1CC[C@@H]2C(=O)Nc1cc(C(F)(F)F)cc(C(F)(F)F)c1` came in with a half-maximal inhibitory concentration (IC50) of 0.2 nM. Against the preceding molecule, the IC50 is about 18-fold lower.
The same measure for `CC(C)(C)c1ccc(-c2ccc(C(F)(F)F)cc2NC(=O)[C@H]2CC[C@H]3[C@@H]4CNC5=CC(=O)CC[C@]5(C)[C@H]4CC[C@]23C)cc1`: 0.5 nM.
The same measure for `CC(C)(C)c1ccccc1NC(=O)[C@H]1CC[C@H]2[C@@H]3CNC4=CC(=O)CC[C@]4(C)[C@H]3CC[C@]12C`: 0.2 nM; for `CC(C)CC(=O)[C@H]1CC[C@H]2[C@@H]3CNC4=CC(=O)CC[C@]4(C)[C@H]3CC[C@]12C`: 0.08 nM.
Under `C[C@]12CC[C@H]3[C@@H](CNC4=CC(=O)CC[C@@]43C)[C@@H]1CC[C@@H]2C(=O)N1CCOCC1` stands 7.1 nM; under `C[C@]12CC[C@H]3[C@@H](CNC4=CC(=O)CC[C@@]43C)[C@@H]1CC[C@@H]2C(=O)NN(c1ccccc1)c1ccccc1`, 0.23 nM; under `C[C@]12CC[C@H]3[C@@H](CNC4=CC(=O)CC[C@@]43C)[C@@H]1CC[C@@H]2C(=O)NC(C1CCCCC1)C1CCCCC1`, 0.4 nM.
Molecule `C[C@]12CC[C@H]3[C@@H](CNC4=CC(=O)CC[C@@]43C)[C@@H]1CC[C@@H]2C(=O)NC(c1ccc(Cl)cc1)c1ccc(Cl)cc1` showed an IC50 of 0.12 nM.
Turning to `C[C@]12CC[C@H]3[C@@H](CNC4=CC(=O)CC[C@@]43C)[C@@H]1CC[C@@H]2C(=O)NC(c1ccccc1)(c1ccccc1)c1ccccc1`, half-maximal inhibition (IC50) was put at 0.09 nM.
Turning to `C[C@]12CC[C@H]3[C@@H](CNC4=CC(=O)CC[C@@]43C)[C@@H]1CC[C@@H]2C(=O)NC(c1ccccc1)c1ccccc1`, inhibition was half-maximal at 0.09 nM (IC50).
Under `CCN(C)C(=O)[C@H]1CC[C@H]2[C@@H]3CNC4=CC(=O)CC[C@]4(C)[C@H]3CC[C@]12C` stands 2.8 nM.
The molecule `CC(C)N(C(=O)[C@H]1CC[C@H]2[C@@H]3CNC4=CC(=O)CC[C@]4(C)[C@H]3CC[C@]12C)C(C)C` showed a half-inhibitory concentration (IC50) of 0.36 nM.
Under `C[C@]12CC[C@H]3[C@@H](CNC4=CC(=O)CC[C@@]43C)[C@@H]1CC[C@@H]2C(=O)OC1C2CC3CC(C2)CC1C3` (some centres undefined) stands 0.04 nM; under `CON(C)C(=O)[C@H]1CC[C@H]2[C@@H]3CNC4=CC(=O)CC[C@]4(C)[C@H]3CC[C@]12C`, 2.4 nM.

The values above are taken from ChEMBL document CHEMBL3046251, “3D-QSAR CoMFA and CoMSIA studies for design of potent human steroid 5-reductase inhibitors” (Med Chem Res, 2013).
